This is an account of results in PubChem BioAssay AID489041 (Sanford-Burnham Center for Chemical Genomics, 2010).

Structures are written as SMILES. Calls of active or inactive are those of the source. The rule behind the calls is not given here.

In the experiment the test system is HEK-293T NF-kB luciferase reporter counterscreen, luminescence. Description: NF-kB reporter inhibition in HEK-293T, dose response, counter-screen for T-cell antigen receptor NF-kB inhibitors, HEK-293T cells, luminescence (AID 489041).
In general, IC50 refers to the midpoint of a concentration-inhibition curve. As to `c1ccc(-c2noc(-c3ccc4ccccc4c3)n2)nc1`, the IC50 was 3.2 µM. With `CC(C)Nc1ccc(C(CC(N)=O)NC(=O)c2ccc(Br)cc2)cc1[N+](=O)[O-]` (stereo not given) the figure was > 80 µM (inactive). As to `COc1cccc(CN(C)C(=O)c2ccc(OCC(=O)Nc3cccc(C(F)(F)F)c3)c(OC)c2)c1`, the IC50 is 1.88 µM. The result for `Cc1nc(Sc2nnnn2C)c2c3c(sc2n1)CCC3` reads 31.4 µM (inactive); that for `CN[C@H]1CCc2cc(OC)c(OC)c(OC)c2-c2ccc(OC)c(=O)cc21`, below 0.16 µM.

Turning to `O=C(N/N=C\c1c(O)ccc2ccccc12)c1ccc(S(=O)(=O)N2CCCCC2)cc1`, the IC50 was > 80 µM (inactive). On to `COc1cc(C(=O)N2CCN(c3cccc(C)c3C)CC2)cc(OC)c1OC`, for which the IC50 was 12.5 µM.

With `CCCOC(=O)c1[nH]c2c(c1C)C(=O)CC(c1cccs1)C2` (stereo not given), the IC50 is 15.2 µM. With `Cc1ccsc1/C=N/NC(=O)c1cc(-c2ccncc2)nc2ccccc12` the figure was 2.94 µM; with `Cc1ccc(Nc2cc(C)nn2-c2nc(C)cc(=O)[nH]2)cc1`, > 80 µM (inactive); with `CC(=O)O[C@H]1C(=O)[C@@]2(C)[C@H]([C@H](OC(=O)c3ccccc3)[C@]3(O)C[C@H](OC(=O)[C@H](O)[C@@H](NC(=O)c4ccccc4)c4ccccc4)C(C)=C1C3(C)C)[C@]1(OC(C)=O)CO[C@@H]1C[C@@H]2O`, > 80 µM (inactive).

Take `Clc1ccc2c(c1)C(C1=NCCN1)c1ccccc1CS2` (stereo not given): the IC50 was > 80 µM (inactive). Take `O=C(Nc1ccc([N+](=O)[O-])cc1)Nc1ccon1`: the IC50 is > 80 µM (inactive). For `CCOC(=O)c1[nH]c2c(c1C)C(=O)CC(c1ccc(F)cc1)C2` (stereo not given), the IC50 was > 80 µM (inactive). `O=C(Nc1ncc(Cc2ccc(SC(F)F)cc2)s1)c1ccc(OC(F)F)cc1`: the IC50 is 3.66 µM. With `CC(C)Oc1ccccc1C1CC(=O)Nc2cc3c(cc21)OCCO3` (stereo not given), the IC50 was 2.69 µM.

Turning to `CNC[C@H](CC1CCCCC1)NC[C@H](Cc1ccccc1)NCCC12CC3CC(CC(C3)C1)C2`, the IC50 was 25 µM (inactive).

As to `COc1cc(/C=C/[N+](=O)[O-])ccc1OCc1cccc(C(=O)O)c1`, the half-inhibitory concentration (IC50) is 10.5 µM.

Regarding `COC(=O)C1CN(C#N)N(c2ccc(Cl)cc2)C12c1ccccc1-c1ccccc12` (stereo not given), the IC50 was 15.7 µM. Regarding `COc1cc(C2C(C#N)=C(N)Oc3cc(N(C)C)ccc32)cc2c1OCO2` (stereo not given), the IC50 was 3.56 µM. Regarding `C=C(C)COc1ccc(-c2[nH]ncc2-c2ccc(OC)c(OC)c2)c(O)c1`, the IC50 was 5.03 µM.

In the case of `CC1=Nc2ccccc2/C1=C\c1sc(Nc2ccc(C)cc2)nc1O`, the IC50 was 3.6 µM.

Turning to `O=S1(=O)C=C(Sc2nc3ccccc3s2)c2ccccc21`, the half-maximal inhibitory concentration (IC50) was 5.57 µM. For the molecule `CCOc1ccccc1NC(=O)CN(c1ccc(OC)cc1)S(=O)(=O)c1c(C)noc1C`, the IC50 was 16.9 µM. On to `COc1cc([C@@H]2c3cc4c(cc3[C@@H](OC)[C@H]3COC(=O)[C@H]23)OCO4)cc(OC)c1O`, for which the IC50 is > 80 µM (inactive). With `CC(C)(C)c1ccc(C(=O)O/N=C(\N)c2ccccn2)cc1` the figure was 0.23 µM; with `CC(=O)N(C)C1=C(N2CCOCC2)C(=O)c2ccccc2C1=O`, 5.29 µM. Consider `O=C1CC(c2cc(F)ccc2F)c2cc3c(cc2N1)CCC3` (stereo not given), for which the half-maximal inhibitory concentration (IC50) is 4.69 µM.

As to `O=C(N=Nc1c(O)[nH]c2ccc(Br)cc12)c1ccccc1-n1cccc1`, the IC50 was 7.76 µM. Consider `COc1ccc(C)c(Cn2c(-c3nonc3N)nc3ccccc32)c1`, for which the IC50 is 1.84 µM. With `Cc1ccc(-c2cc(-c3ccc(C)cc3)[n+](-c3ccccc3)c(-c3ccc(C)cc3)c2)cc1` the figure was 1.1 µM. Consider `COc1cc2nc(CN3CC=C(c4ccccc4)CC3)[nH]c(=O)c2cc1OC`, for which the half-maximal inhibitory concentration (IC50) was 2.5 µM. In the case of `COc1ccc(OC)c(COC(=O)c2cc([N+](=O)[O-])ccc2N2CCOCC2)c1`, the IC50 was 52.4 µM (inactive).

Regarding `O=C(Nc1ccc(S(=O)(=O)Nc2ccccc2)cc1)c1ccc(CN2CCOCC2)cc1`, the IC50 was 5.23 µM.

Turning to `COc1ccccc1-c1nnc2sc(-c3ccc(N(C)C)cc3)nn12`, the IC50 is 2.32 µM.

As for `O=C(N/N=C/c1c(O)ccc2ccccc12)c1cccc(C(F)(F)F)c1`, the IC50 was 3.01 µM. Consider `CCOC(=O)C(C)Oc1cccc2c(=O)n(CC(=O)NCc3ccccc3)ccc12` (stereo not given), for which the IC50 was 0.78 µM. With `c1ccc(-c2noc(-c3ccc4c(c3)OCO4)n2)nc1` the figure was 1.4 µM. As for `CCCCCCCOc1ccc(OC(=O)c2ccncc2)cc1`, the IC50 is > 80 µM (inactive). The result for `COC(=O)[C@]12OC[C@]34C([C@@H](O)[C@@H]1O)[C@]1(C)CC(=O)C(O)=C(C)[C@@H]1C[C@H]3OC(=O)[C@H](O)[C@@H]24` (stereo not given in full) reads 0.548 µM; that for `COc1ccc(C(=O)N(C)Cc2cnn(Cc3ccccc3)c2)cc1S(=O)(=O)N1CCOCC1`, 22.9 µM (inactive). Regarding `Cc1ccc(NC(=O)CSc2nc(-c3ccco3)cc(C(F)(F)F)n2)cc1C`, the IC50 is > 80 µM (inactive). With `CCOc1ccc(S(=O)(=O)NCc2ccccn2)cc1NC(=O)c1ccccc1F` the figure was > 80 µM (inactive). On to `O=C(Nc1ccccc1Cl)/C(Cl)=C(\Cl)S(=O)c1ccccc1` (stereo not given), for which the IC50 was 9.87 µM. As for `Cc1ccc(/C=N/NC(=O)c2c(C)nc3ccc(Br)cn23)cc1`, the IC50 is > 80 µM (inactive). Regarding `COC(=O)c1ccc2nc(Nc3nc4c(F)cc(F)cc4s3)sc2c1`, the IC50 was 0.51 µM. On to `Cc1[nH]n(-c2ccccc2)c(=O)c1/C=N/Nc1nncc(-c2ccccc2)n1`, for which the half-inhibitory concentration (IC50) was 0.2 µM. Consider `C/C=C/COC(=O)c1[nH]c2c(c1C)C(=O)CC(c1ccco1)C2` (stereo not given), for which the IC50 is 0.34 µM.

On to `C/C=C(\C)C(=O)N[C@@H](c1ccccc1)[C@@H](O)C(=O)O[C@H]1C[C@@]2(O)[C@@H](OC(=O)c3ccccc3)C3[C@](C)(C(=O)[C@H](OC(C)=O)C(=C1C)C2(C)C)[C@H](O)C[C@H]1OC[C@@]31OC(C)=O` (stereo not given in full), for which the IC50 was > 80 µM (inactive).

With `CC(Oc1ccc(Cl)cc1Cl)c1nc(-c2ccc(NC(=O)c3ccncc3)cc2)no1` (stereo not given), the IC50 was 2.39 µM. For `COc1ccc(C(=O)/C(C#N)=N/Nc2ccc([N+](=O)[O-])cc2)cc1`, the half-inhibitory concentration (IC50) was 0.32 µM.

`CC(=O)O[C@H]1C(=O)[C@@]2(C)C([C@H](OC(=O)c3ccccc3)[C@]3(O)C[C@H](OC(=O)[C@H](O)[C@@H](NC(=O)c4ccccc4)c4ccccc4)C(C)=C1C3(C)C)[C@]1(OC(C)=O)CO[C@@H]1C[C@H]2O` (stereo not given in full): the IC50 was > 80 µM (inactive).

For the molecule `O[C@@H]1[C@@H](O)C=C2CCN3Cc4cc5c(cc4[C@H]1C23)OCO5` (stereo not given in full), the concentration for half-maximal inhibition (IC50) was 1.97 µM. On to `Cc1ccc(NS(=O)(=O)c2ccc(C(=O)NC3CCN(Cc4ccccc4)CC3)cc2)cc1`, for which the 50% inhibitory concentration (IC50) was 7.66 µM. With `CC(=O)O[C@@]12CO[C@@H]1C[C@H](O)[C@@]1(C)C(=O)[C@H](O)C3=C(C)[C@@H](OC(=O)[C@H](O)[C@@H](NC(=O)c4ccccc4)c4ccccc4)C[C@@](O)([C@@H](OC(=O)c4ccccc4)C12)C3(C)C` (stereo not given in full), the IC50 is > 80 µM (inactive).

`CCc1ccc(/C=N/NC(=O)c2cc(-c3ccncc3)nc3ccccc23)s1`: the IC50 was 7.66 µM. Regarding `COC(=O)c1[nH]c2ccc(F)cc2c1NS(=O)(=O)c1ccc(OC)cc1`, the concentration for half-maximal inhibition (IC50) is 11.8 µM. Turning to `COc1ccc(CNC(=O)c2c(C)oc3c2C(=O)c2ccccc2C3=O)cc1`, the half-maximal inhibitory concentration (IC50) is 2.15 µM. With `Cc1oc(-c2ccc(Cl)cc2)nc1CS(=O)CC(=O)NCCCN1CCN(Cc2ccccc2)CC1` (stereo not given) the figure was 4.13 µM; with `O=C(c1ccccc1)c1cc([N+](=O)[O-])ccc1N1CCOCC1`, 17.1 µM. Consider `COC(=O)Nc1ccc(S(=O)(=O)N2CCCc3ccccc32)cc1`, for which the IC50 was 11.9 µM. Take `O=C(Nc1ccc(Cc2ccncc2)cc1)c1ccc(S(=O)(=O)N2CCCC2)cc1`: the IC50 was 2.75 µM. Regarding `CCOC(=O)c1[nH]c(C)c(C(=O)Nc2ccccc2C)c1C`, the IC50 is 67.3 µM (inactive). As to `CCCC(=O)NC(c1ccc(C)cc1)c1ccc2cccnc2c1O` (stereo not given), the 50% inhibitory concentration (IC50) was 0.43 µM. For `C#Cc1ccc([C@@H]2C=C(C(=O)N3CCN(Cc4ccccc4)CC3)O[C@H](OCCCCO)C2)cc1`, the IC50 was 2.32 µM. With `COC(=O)C(Cc1ccc(N(CCCl)CCCl)cc1)N=Cc1ccccc1O` (stereo not given), the IC50 is 43.4 µM (inactive). For the molecule `Cc1nc(NCc2ccco2)c2c(C)c(C)sc2n1`, the half-inhibitory concentration (IC50) was 1.82 µM.

Take `Cc1ccc(/C=N/NC(=O)C2COc3ccccc3O2)s1` (stereo not given): the IC50 is 51.6 µM (inactive). As for `O=C(c1ccccc1-c1ccccc1)N1CCN(c2ccccn2)CC1`, the IC50 was > 80 µM (inactive).

On to `CCCCS(=O)(=O)/C=C\C=C/S(=O)(=O)CCCC`, for which the IC50 was 20.2 µM (inactive).

As for `Cc1ccc(N(C)S(=O)(=O)c2ccc(-c3cnc(C4CC4)o3)cc2)cc1`, the concentration for half-maximal inhibition (IC50) is 4.53 µM. As for `COc1cc(NS(C)(=O)=O)ccc1Nc1c2ccccc2nc2ccccc12`, the IC50 is > 80 µM (inactive). As to `CC[n+]1cc(C)ccc1/C=C/c1ccc(N(C)C)cc1`, the IC50 was 3.97 µM. For `Cc1cc(-n2c(C)cc(C(=O)CSc3ncnc4ccccc34)c2C)no1`, the IC50 is 3 µM. As to `O=C(Nc1ccc(Oc2cccnc2)nc1)c1ccc(C(F)(F)F)cc1`, the IC50 is 1.52 µM. Consider `COc1cccc(/C=N/Nc2ccc(C(=O)O)cc2)c1O`, for which the IC50 was 0.41 µM.

As to `COc1ccc(OC)c(C2CC(=O)c3c([nH]c(C(=O)OC(C)C)c3C)C2)c1` (stereo not given), the 50% inhibitory concentration (IC50) was 2.29 µM. Turning to `CC1=C([N+](=O)[O-])C(c2ccccc2)C2=C(N1)c1ccccc1C2=O` (stereo not given), the 50% inhibitory concentration (IC50) was 8.44 µM. As to `Cc1cccc(N2CCN(C(=O)c3ccc(CS(=O)(=O)c4ccccc4C)o3)CC2C)c1` (stereo not given), the concentration for half-maximal inhibition (IC50) is 2.34 µM. As for `Cc1ccc(O)c(NC(=O)c2cc(-c3ccco3)on2)c1`, the IC50 was > 80 µM (inactive).

For the molecule `COc1ccc(Nc2ncnc3ccc(Br)cc23)c(OC)c1`, the half-maximal inhibitory concentration (IC50) was 12 µM.

For the molecule `COc1cc(NC(=O)N2CCNC2=O)cc(C(=O)Nc2cccc(C(F)(F)F)c2)c1`, the IC50 is 2.17 µM.

Take `CC(=O)c1ccc(Oc2cc(C)nc(-n3nc(C)cc3C)n2)cc1`: the IC50 was 14.6 µM. As for `COc1cc(C2c3cc4c(cc3C(OC3OC5COC(c6cccs6)OC5C(O)C3O)C3COC(=O)C23)OCO4)cc(OC)c1O` (stereo not given), the IC50 is > 80 µM (inactive).

Take `COC(=O)c1nn(-c2ccc3c(c2)CCN3C(C)=O)cc1O`: the IC50 is 3.87 µM.
